Results from patent publication US9951065B2 (Gilead Sciences, Inc., priority 2015, dated 2018).
pEC50: −log10 of the molar value.

Target: T1, IDO1 (Homo sapiens, UniProt P14902)
T1 construct: HeLa cells were treated with a test compound in the presence of IFNγ, which induces IDO1 expression; host or cells: H1-HeLa cells, IDO1 induced with IFNγ
Test: Cell-based (HeLa) assay for measurement of IDO1 inhibition (kynurenine levels in supernatant after IFNγ induction)
Settings: HeLa cells, IFNγ-induced IDO1, kynurenine in supernatant after 48 hour incubation; geometric mean of a minimum of four determinations
How it was run: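 HeLa cells, 1,250 per well, treated with compound (0.5% DMSO final) plus IFNγ to induce IDO1, for 48 h. Supernatant kynurenine measured by TCA hydrolysis at 60 °C, then p-dimethylaminobenzaldehyde, absorbance 480 nm. EC50 from a four-parameter fit normalized to −/+IFNγ controls; geometric mean of at least four runs.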

T1 sequence (P14902 whole entry): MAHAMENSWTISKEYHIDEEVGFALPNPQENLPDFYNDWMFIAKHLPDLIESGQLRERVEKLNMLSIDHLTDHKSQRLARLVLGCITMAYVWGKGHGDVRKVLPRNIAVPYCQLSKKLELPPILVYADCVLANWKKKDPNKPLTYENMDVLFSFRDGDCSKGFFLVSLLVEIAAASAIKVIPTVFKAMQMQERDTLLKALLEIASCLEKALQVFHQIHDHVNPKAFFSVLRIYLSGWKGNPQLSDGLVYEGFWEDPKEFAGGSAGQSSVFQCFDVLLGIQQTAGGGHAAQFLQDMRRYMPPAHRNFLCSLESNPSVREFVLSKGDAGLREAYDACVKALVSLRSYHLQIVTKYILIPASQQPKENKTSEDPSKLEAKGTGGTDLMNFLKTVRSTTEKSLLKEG

Compound	pEC50
O/N=C(\Nc1ccc(F)c(Cl)c1)c1ccnc2nc(CNCC3CC3)[nH]c12 [Example 117, N-(3-Chloro-4-fluorophenyl)-2-(((cyclopropylmethyl)amino)methyl)-N′-hydroxy-1H-imidazo[4,5-b]pyridine-7-carboximidamide]	6.12
Nc1nc2nccc(/C(=N/O)Nc3ccc(F)c(Cl)c3)c2[nH]1 [Example 153, 2-Amino-N-(3-chloro-4-fluorophenyl)-N′-hydroxy-1H-imidazo[4,5-b]pyridine-7-carboximidamide]	6.05
O/N=C(\Nc1cccc(Cl)c1)c1ccnc2nc(CCN3CCCC3)[nH]c12 [Example 268, N-(3-chlorophenyl)-N′-hydroxy-2-(2-(pyrrolidin-1-yl)ethyl)-1H-imidazo[4,5-b]pyridine-7-carboximidamide]	6.02
O/N=C(\Nc1cccc2ccccc12)c1ccnc2nc[nH]c12 [Example 104, N′-hydroxy-N-(naphthalen-1-yl)-1H-imidazo[4,5-b]pyridine-7-carboximidamide]	5.71
O/N=C(\Nc1ccc(F)cc1)c1ccnc2nc[nH]c12 [Example 89, N-(4-Fluorophenyl)-N′-hydroxy-1H-imidazo[4,5-b]pyridine-7-carboximidamide]	6.03
O/N=C(\Nc1cc2ccccc2cc1Cl)c1ccnc2nc[nH]c12 [Example 103, N-(3-Chloronaphthalen-2-yl)-N′-hydroxy-1H-imidazo[4,5-b]pyridine-7-carboximidamide]	5.09
CS(=O)(=O)NCCc1nc2c(F)c(F)cc(/C(=N/O)Nc3ccc(F)c(Cl)c3)c2[nH]1 [Example 210, N-(3-chloro-4-fluorophenyl)-4,5-difluoro-N′-hydroxy-2-(2-(methylsulfonamido)ethyl)-1H-benzo[d]imidazole-7-carboximidamide]	< 5.00
O/N=C(\Nc1ccc(F)c(Cl)c1)c1ccnc2nc(NCCCN3CCOCC3)[nH]c12 [Example 221, N-(3-chloro-4-fluorophenyl)-N′-hydroxy-2-((3-morpholinopropyl)amino)-1H-imidazo[4,5-b]pyridine-7-carboximidamide]	6.05
O/N=C(\Nc1ccccc1)c1ccnc2nc[nH]c12 [Example 100, N′-hydroxy-N-phenyl-1H-imidazo[4,5-b]pyridine-7-carboximidamide]	6.11
O/N=C(\Nc1ccc(F)c(Cl)c1)c1ccnc2nc(CCN3CC4CCCC(C4)C3)[nH]c12 [Example 276, 2-(2-(3-azabicyclo[3.3.1]nonan-3-yl)ethyl)-N-(3-chloro-4-fluorophenyl)-N′-hydroxy-1H-imidazo[4,5-b]pyridine-7-carboximidamide]	6.21
O/N=C(\Nc1ccc(F)c(Cl)c1)c1ccnc2nc(CN3CCOCC3)[nH]c12 [Example 112, N-(3-Chloro-4-fluorophenyl)-N′-hydroxy-2-(morpholinomethyl)-1H-imidazo[4,5-b]pyridine-7-carboximidamide]	5.02
O/N=C(\Nc1ccc(F)c(Cl)c1)c1ccnc2nc(CNCCc3ncccn3)[nH]c12 [Example 137, N-(3-Chloro-4-fluorophenyl)-N′-hydroxy-2-(((2-(pyrimidin-2-yl)ethyl)amino)methyl)-1H-imidazo[4,5-b]pyridine-7-carboximidamide]	5.13
COc1cc(N/C(=N\O)c2ccnc3nc[nH]c23)ccc1F [Example 106, N-(4-Fluoro-3-methoxyphenyl)-N′-hydroxy-1H-imidazo[4,5-b]pyridine-7-carboximidamide]	5.26
O/N=C(\Nc1ccc(F)c(Cl)c1)c1ccnc2nc(CNC3CCOCC3)[nH]c12 [Example 132, N-(3-Chloro-4-fluorophenyl)-N′-hydroxy-2-(((tetrahydro-2H-pyran-4-yl)amino)methyl)-1H-imidazo[4,5-b]pyridine-7-carboximidamide]	5.46
CN(C)c1nc2nccc(/C(=N/O)Nc3ccc(F)c(Cl)c3)c2[nH]1 [Example 169, N-(3-Chloro-4-fluorophenyl)-2-(dimethylamino)-N′-hydroxy-1H-imidazo[4,5-b]pyridine-7-carboximidamide]	5.20

Now from value to compound:

pEC50	Compound
6.10	CCN(CC)CCc1nc2c(F)c(F)cc(/C(=N/O)Nc3ccc(F)c(Cl)c3)c2[nH]1 [Example 58, N-(3-Chloro-4-fluorophenyl)-2-(2-(diethylamino)ethyl)-4,5-difluoro-N′-hydroxy-1H-benzo[d]imidazole-7-carboximidamide]
6.33	CN(C)CCCNc1nc2c(F)c(F)cc(/C(=N/O)Nc3ccc(F)c(Cl)c3)c2[nH]1 [Example 39, N-(3-Chloro-4-fluorophenyl)-2-((3-(dimethylamino)propyl)amino)-4,5-difluoro-N′-hydroxy-1H-benzo[d]imidazole-7-carboximidamide]
5.58	NCc1nc2c(F)ccc(/C(=N/O)Nc3ccc(F)c(Cl)c3)c2[nH]1 [Example 291, 2-(aminomethyl)-N-(3-chloro-4-fluorophenyl)-4-fluoro-N′-hydroxy-1H-benzo[d]imidazole-7-carboximidamide]
6.37	CN(C)CCNc1nc2c(F)ccc(/C(=N/O)Nc3ccc(F)c(Cl)c3)c2[nH]1 [Example 201, N-(3-Chloro-4-fluorophenyl)-2-[2-(dimethylamino)ethylamino]-7-fluoro-N′-hydroxy-3H-benzimidazole-4-carboximidamide]

Same assay, conditions: HeLa cells, IFNγ-induced IDO1, kynurenine in supernatant, 48 hour incubation; geometric mean of a minimum of four determinations

Compound	pEC50
O/N=C(\Nc1ccc(F)c(Cl)c1)c1cc(F)c(F)c2nc(NC3COCCC3N3CCCC3)[nH]c12 (centres unmarked) [Example 473, N-(3-chloro-4-fluorophenyl)-4,5-difluoro-N′-hydroxy-2-((4-(pyrrolidin-1-yl)tetrahydro-2H-pyran-3-yl)amino)-1H-benzo[d]imidazole-7-carboximidamide]	5.99
O/N=C(\Nc1ccc(F)c(Cl)c1)c1cc(F)c(F)c2nc(NCC34CCCN3CCC4)[nH]c12 [Example 471, N-(3-chloro-4-fluorophenyl)-4,5-difluoro-2-(((hexahydro-1H-pyrrolizin-7a-yl)methyl)amino)-N′-hydroxy-1H-benzo[d]imidazole-7-carboximidamide]	6.07
O/N=C(\Nc1ccc(F)c(Cl)c1)c1ccnc2nc(NCCN3CCC(F)(F)C3)[nH]c12 [Example 491, N-(3-chloro-4-fluorophenyl)-2-((2-(3,3-difluoropyrrolidin-1-yl)ethyl)amino)-N′-hydroxy-1H-imidazo[4,5-b]pyridine-7-carboximidamide]	6.04
O=S(=O)(NCCNc1nc2c(F)c(F)cc(/C(=N/O)Nc3ccc(F)c(Cl)c3)c2[nH]1)c1ccccc1 [Example 339, N-(3-chloro-4-fluorophenyl)-4,5-difluoro-N′-hydroxy-2-((2-(phenylsulfonamido)ethyl)amino)-1H-benzo[d]imidazole-7-carboximidamide]	< 5.00
CC1CCN(C)C(CNc2nc3c(F)c(F)cc(/C(=N/O)Nc4ccc(F)c(Cl)c4)c3[nH]2)C1 (centres unmarked) [Example 466, N-(3-chloro-4-fluorophenyl)-2-(((1,4-dimethylpiperidin-2-yl)methyl)amino)-4,5-difluoro-N′-hydroxy-1H-benzo[d]imidazole-7-carboximidamide]	6.16

Continued, values first:

pEC50	Compound
5.91	O/N=C(\Nc1ccc(F)c(Cl)c1)c1cc(F)c(F)c2nc(NCCCN3CCCC3)[nH]c12 [Example 434, N-(3-chloro-4-fluorophenyl)-4,5-difluoro-N′-hydroxy-2-((3-(pyrrolidin-1-yl)propyl)amino)-1H-benzo[d]imidazole-7-carboximidamide]
5.92	CCN(CC)CCNc1nc2c(F)ccc(/C(=N/O)Nc3ccc(F)c(Cl)c3)c2[nH]1 [Example 375, N-(3-chloro-4-fluorophenyl)-2-((2-(diethylamino)ethyl)amino)-4-fluoro-N′-hydroxy-1H-benzo[d]imidazole-7-carboximidamide]
6.03	CN(C)CCCNc1nc2c(F)ccc(/C(=N/O)Nc3ccc(F)c(Cl)c3)c2[nH]1 [Example 388, N-(3-chloro-4-fluorophenyl)-2-((3-(dimethylamino)propyl)amino)-4-fluoro-N′-hydroxy-1H-benzo[d]imidazole-7-carboximidamide]
6.25	CN(C)CCCNc1nc2c(F)c(F)cc(/C(=N/O)Nc3cccc(Br)c3)c2[nH]1 [Example 386, N-(3-bromophenyl)-2-((3-(dimethylamino)propyl)amino)-4,5-difluoro-N′-hydroxy-1H-benzo[d]imidazole-7-carboximidamide]
5.49	Nc1ccccc1CNc1nc2c(F)c(F)cc(/C(=N/O)Nc3ccc(F)c(Cl)c3)c2[nH]1 [Example 347, 2-((2-aminobenzyl)amino)-N-(3-chloro-4-fluorophenyl)-4,5-difluoro-N′-hydroxy-1H-benzo[d]imidazole-7-carboximidamide]
5.40	CN(C)C(=O)CNc1nc2c(F)c(F)cc(/C(=N/O)Nc3ccc(F)c(Cl)c3)c2[nH]1 [Example 301, 2-((7-(N-(3-chloro-4-fluorophenyl)-N′-hydroxycarbamimidoyl)-4,5-difluoro-1H-benzo[d]imidazol-2-yl)amino)-N,N-dimethylacetamide]
5.53	CN(C)CCCCNc1nc2c(F)c(F)cc(/C(=N/O)Nc3ccc(F)c(Cl)c3)c2[nH]1 [Example 303, N-(3-chloro-4-fluorophenyl)-2-((4-(dimethylamino)butyl)amino)-4,5-difluoro-N′-hydroxy-1H-benzo[d]imidazole-7-carboximidamide]
6.36	CN(C)CC(C)(C)CNc1nc2c(F)c(F)cc(/C(=N/O)Nc3ccc(F)c(Cl)c3)c2[nH]1 [Example 351, N-(3-chloro-4-fluorophenyl)-2-((3-(dimethylamino)-2,2-dimethylpropyl)amino)-4,5-difluoro-N′-hydroxy-1H-benzo[d]imidazole-7-carboximidamide]
